Earlier results in patent publication US10351563B2, “Biaryl kinase inhibitors” (BRISTOL-MYERS SQUIBB COMPANY, priority 2014, dated 2019).

Columns and labels:
AAK1 = AAK1 (Homo sapiens (Human), UniProt Q2M2I8)
HCV = details: Huh-7.5 cells

Chain of AAK1 (Q2M2I8 whole entry, species assumed): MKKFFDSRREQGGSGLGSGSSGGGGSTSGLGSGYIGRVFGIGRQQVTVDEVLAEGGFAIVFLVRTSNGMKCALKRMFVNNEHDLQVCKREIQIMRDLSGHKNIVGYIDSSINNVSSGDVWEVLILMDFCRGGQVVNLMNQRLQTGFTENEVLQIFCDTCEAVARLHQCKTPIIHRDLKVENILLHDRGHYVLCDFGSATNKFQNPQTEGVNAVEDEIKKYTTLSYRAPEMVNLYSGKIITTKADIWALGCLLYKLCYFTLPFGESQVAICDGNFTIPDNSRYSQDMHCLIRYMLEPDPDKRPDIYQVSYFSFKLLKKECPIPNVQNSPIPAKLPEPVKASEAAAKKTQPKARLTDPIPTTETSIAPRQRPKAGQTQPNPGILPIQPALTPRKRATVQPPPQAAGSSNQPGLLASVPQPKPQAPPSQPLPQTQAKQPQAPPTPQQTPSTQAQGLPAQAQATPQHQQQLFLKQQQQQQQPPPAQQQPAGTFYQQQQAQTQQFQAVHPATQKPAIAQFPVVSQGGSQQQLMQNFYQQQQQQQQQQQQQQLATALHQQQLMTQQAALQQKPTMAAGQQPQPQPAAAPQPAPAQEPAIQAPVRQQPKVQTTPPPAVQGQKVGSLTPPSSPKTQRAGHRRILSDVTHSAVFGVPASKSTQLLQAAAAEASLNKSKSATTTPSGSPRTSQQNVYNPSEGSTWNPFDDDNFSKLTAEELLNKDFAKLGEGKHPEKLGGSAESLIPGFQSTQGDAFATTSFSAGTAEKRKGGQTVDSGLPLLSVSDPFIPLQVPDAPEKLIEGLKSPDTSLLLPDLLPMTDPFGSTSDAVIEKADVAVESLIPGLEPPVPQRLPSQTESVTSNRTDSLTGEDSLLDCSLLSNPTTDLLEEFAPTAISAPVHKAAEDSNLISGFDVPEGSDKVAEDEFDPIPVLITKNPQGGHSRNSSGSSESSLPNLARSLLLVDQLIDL

Row | Structure (SMILES) | Neuregulin-1 induced neurite outgrowth (PC12 cells) | AAK1 kinase activity inhibition (AAK1) | HCV entry (HCV) | HCV virion assembly (HCV)
1 | COC(=O)[C@@]1(O)C[C@H]2O[C@]1(C)n1c3ccccc3c3c4c(c5c6ccccc6n2c5c31)C(=O)NC4 [Example K252a, K252a] | potentiation of Neuregulin-1 induced neurite outgrowth | inhibits AAK1 kinase activity | – | –
2 | CCN(CC)CCNC(=O)c1c(C)[nH]c(/C=C2\C(=O)Nc3ccc(F)cc32)c1C [sunitinib] | – | potent AAK1 inhibitor | inhibit HCV entry | reduced HCV virion assembly
